# Reference: PubChem BioAssay (NCI)
#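 Cells were grown in 96-well plates and exposed to each compound for 48 hours at five concentrations; endpoints were interpolated linearly between bracketing concentrations, or set to the highest concentration if not reached. TGI: total growth inhibition.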
# Legend:
# Experiment in all cases: inhibition of tumour cell growth, NCI panel, 48 h
# A498 renal = tested on: A498 renal
# HT29 colon = tested on: HT29 colon
# HS 578T breast = tested on: HS 578T breast
# LOX IMVI melanoma = tested on: LOX IMVI melanoma
# HCT-15 colon = tested on: HCT-15 colon
# MDA-MB-435 = tested on: MDA-MB-435
# NCI-H226 lung = tested on: NCI-H226 lung
# ACHN renal = tested on: ACHN renal
# SR leukemia = tested on: SR leukemia
# COLO 205 colon = tested on: COLO 205 colon
# SF-268 CNS = tested on: SF-268 CNS
# HOP-92 NSCLC = tested on: HOP-92 NSCLC
# DU-145 prostate = tested on: DU-145 prostate
# U251 CNS = tested on: U251 CNS
# OVCAR-3 ovarian = tested on: OVCAR-3 ovarian
# NCI-H23 lung = tested on: NCI-H23 lung
# 786-0 renal = tested on: 786-0 renal
# RPMI-8226 leukemia = tested on: RPMI-8226 leukemia
# RXF 393 renal = tested on: RXF 393 renal
SMILES,TGI (A498 renal) [µM],TGI (HT29 colon) [µM],TGI (HS 578T breast) [µM],TGI (LOX IMVI melanoma) [µM],TGI (HCT-15 colon) [µM],TGI (MDA-MB-435) [µM],TGI (NCI-H226 lung) [µM],TGI (ACHN renal) [µM],TGI (SR leukemia) [µM],TGI (COLO 205 colon) [µM],TGI (SF-268 CNS) [µM],TGI (HOP-92 NSCLC) [µM],TGI (DU-145 prostate) [µM],TGI (U251 CNS) [µM],TGI (OVCAR-3 ovarian) [µM],TGI (NCI-H23 lung) [µM],TGI (786-0 renal) [µM],TGI (RPMI-8226 leukemia) [µM],TGI (RXF 393 renal) [µM]
OC(Cc1ccc2ccccc2n1)(C(F)(F)Cl)C(F)(F)Cl,> 10,> 10,> 10,> 10,> 10,> 10,> 10,> 10,> 10,> 10,> 10,> 10,> 10,> 10,> 10,> 10,> 10,–,–
N#Cc1ncn(CCO)c1N,> 100,> 100,> 100,> 100,> 100,> 100,> 100,> 100,> 100,> 100,> 100,–,> 100,> 100,> 100,> 100,> 100,> 100,–
COc1cc(C2SCC(=O)N2c2ccc(NC(C)=O)cc2)cc(OC)c1OC (configuration not stated),> 100,> 100,> 100,> 100,> 100,> 100,> 100,> 100,> 100,> 100,> 100,> 100,> 100,> 100,> 100,> 100,> 100,> 100,–
CCCCC(/C=C\COC1CCCCO1)=C/C(=O)OCC (configuration not stated),> 100,> 100,> 100,> 100,> 100,> 100,> 100,> 100,> 100,> 100,> 100,–,> 100,> 100,> 100,> 100,> 100,> 100,> 100
COc1cccc(C=C2N=C(c3ccccc3)N(n3c(-c4ccccc4)nc4ccccc4c3=O)C2=O)c1,> 100,> 100,> 100,> 100,> 100,> 100,> 100,> 100,> 100,> 100,> 100,–,> 100,–,–,> 100,> 100,> 100,–
COc1ccc(-n2c3c(c4cc(O)ccc42)Cc2ccccc2C3=O)cc1,> 100,> 100,> 100,> 100,> 100,> 100,> 100,–,> 100,51,> 100,–,> 100,> 100,> 100,> 100,> 100,32.7,9.38
O=C(CC(c1ccccc1)C1C(=O)NC(=S)NC1=O)c1ccc([N+](=O)[O-])cc1 (configuration not stated),> 100,> 100,> 100,> 100,> 100,> 100,> 100,> 100,> 100,> 100,> 100,> 100,> 100,> 100,> 100,> 100,> 100,> 100,–
CN=C(N)N=Nc1c(O)[nH]c2ccccc12,> 100,> 100,> 100,> 100,> 100,> 100,> 100,> 100,> 100,> 100,> 100,> 100,> 100,> 100,–,> 100,> 100,> 100,> 100
Cc1cccc(/C=N\NC(=S)N2CCCCC2)n1,0.347,> 100,> 100,41.6,> 100,> 100,0.747,0.863,0.123,0.22,> 100,> 100,> 100,> 100,–,> 100,20.8,0.502,0.593
COc1cc(C(c2cccc3ccccc23)N2C(=O)CCC2C(=O)O)cc(OC)c1OC (configuration not stated),> 100,> 100,> 100,–,> 100,> 100,> 100,> 100,> 100,> 100,> 100,> 100,> 100,> 100,> 100,> 100,> 100,> 100,> 100
CCCC(C)NC(=O)c1ccc(N(C)Cc2cnc3nc(N)nc(N)c3n2)cc1 (configuration not stated),> 100,58.6,44.2,82.6,> 100,48.2,47.6,92.5,> 100,> 100,> 100,–,> 100,> 100,46.2,> 100,> 100,> 100,84.5
Cc1cc(C)c2c(=O)n(CC(O)CN3CCN(CCOCCO)CC3)sc2n1 (configuration not stated),38.9,39.6,77.8,37.1,> 100,32.8,> 100,35,> 100,34.1,39.8,40.6,48.2,36.3,41.3,30.3,30.6,–,21
COC(=O)c1nn2ccc3ccccc3c2c1C(=O)OC,> 100,> 100,> 100,> 100,> 100,> 100,> 100,> 100,> 100,> 100,> 100,> 100,> 100,> 100,–,> 100,> 100,–,> 100
